Read-outs that look alike come from different tables or passages of the source.
System: E. coli H1443 (fepA+, cir+, fiu+)
Test: Agar diffusion antibacterial susceptibility assay
Format: cell-based
Conditions: Escherichia coli, 24 h, 37° C., read-out: Diameter of growth inhibition zones; for zone of inhibition at 100 µM: 50 μL of 0.1 mM solution; for zone of inhibition at 200 µM: 50 μL of 0.2 mM solution
Protocol: All liquids and media were sterilized by autoclaving (121° C., 15 min) before use. All aqueous solutions and media were prepared using distilled, deionized, and filtered water (Millipore Milli-Q Advantage A10 Water Purification System). Luria broth (LB) was purchased from VWR. Mueller-Hinton No. 2 broth (MHII broth; cation adjusted) was purchased from Sigma-Aldrich (St. Louis, Mo.). Iron-deficient (—Fe) MHII broth was prepared by adding 0.8 mL of a 1 mg/mL sterile aq. solution of 2,2′-bipyridine to 49.2 mL of MHII broth. Iron-rich (+Fe) MHII broth was prepared by adding 0.8 mL of a 1 mg/mL sterile aq. solution of FeCl3 to 49.2 mL of MHII broth. Mueller-Hinton No. 2 agar (MHII agar; HiMedia Laboratories) was purchased from VWR. Iron-deficient (−Fe) MHII agar was prepared by adding 0.5 mL of a 1 mg/mL sterile aq. solution of 2,2′-bipyridine to 34 mL of melted MHII agar with gentle mixing. Iron-rich (+Fe) MHII agar was prepared by adding 0.5 mL of a 1 mg/mL sterile aq. solution of FeCl3 to 34 mL of melted MHII agar with gentle mixing. See also Wencewicz, T. A. Dissertation, University of Notre Dame, Notre Dame, Ind., 2011, for relevant techniques.
Antibacterial Susceptibility Testing by the Agar Diffusion Assay.
Antibacterial activity of the compounds was determined by a modified Kirby-Bauer agar diffusion assay. Overnight cultures of test organisms were grown in LB broth for 18-24 h and standard suspensions of […] were prepared in saline solution (0.9% NaCl) according to a 0.5 BaSO4 McFarland Standard. This standardized suspension (0.1 mL) was added to 34 mL of sterile, melted agar (−Fe or +Fe) tempered to 47-50° C. After gentle mixing, the inoculated agar media was poured into a sterile plastic petri dish (145 mm×20 mm) and allowed to solidify near a flame with the lid ajar for about 30 min. Wells of 9.0 mm diameter were cut from the petri dish agar and filled with exactly 50 μL of the test sample solution. The petri dish was incubated at 37° C. for 18-24 h and the inhibition zone diameters were measured (mm) with an electronic caliper after 24 h.

SMILES | zone of inhibition at 100 µM (+Fe agar) | zone of inhibition at 100 µM (−Fe agar) | zone of inhibition at 200 µM (+Fe agar) | zone of inhibition at 200 µM (−Fe agar)
CC(=O)Oc1cccc(C(=O)NCCCC(CCCNC(=O)c2cccc(OC(C)=O)c2OC(C)=O)(CCCNC(=O)c2cccc(OC(C)=O)c2OC(C)=O)NC(=O)CCC(=O)NC(C(=O)NC2C(=O)N3C2SC(C)(C)C3C(=O)O)c2ccccc2)c1OC(C)=O (stereo not shown) [Compound 10] | 0 mm | 19 mm |  | 
CC(=O)Oc1cccc(C(=O)NCCCC(CCCNC(=O)c2cccc(OC(C)=O)c2OC(C)=O)(CCCNC(=O)c2cccc(OC(C)=O)c2OC(C)=O)NC(=O)CCC(=O)NC(C(=O)NC2C(=O)N3C2SC(C)(C)C3C(=O)O)c2ccc(O)cc2)c1OC(C)=O (stereo not shown) [Compound 11] |  |  | 0 mm | 21 mm
